From a melting point compilation (Tetko et al.; mined from patent text by program, amines drawn as free bases though some values may be those of a salt) come the findings set out here.

The structures appear in SMILES notation. Where only a bound is given, the exact number is not on record here.

For orientation: melting point means the temperature of the solid-liquid transition. As for `CCOC(=NC(=O)c1cc(Cl)nc(Cl)c1)N1Cc2ccccc2-c2ccccc2C1`, the melting point was 151 to 152 °C. In turn, `COc1ccc(CCNc2cc(-n3cccn3)nc(-c3cccs3)n2)cc1` showed a melting point of 99.6 to 100 °C. Compound `CCN(CC)CC1CN(Cc2cc(OC)c(OC)c(OC)c2)CCN1C(=O)C1=Cc2cc(OC)c(OC)cc2CCC1` (configuration not stated) yielded a melting point of 157 to 160 °C.

With `Oc1ccc(Cl)cc1CN1CCCCC1`, the melting point was 53 to 56 °C.

In turn, `CCOC(=O)/C=C/c1ccc(-c2ccc(OCc3ccccc3)c(C34CC5CC(CC(C5)C3)C4)c2)c(Cl)c1` came in with a melting point of 148 to 150 °C. Take `CS(=O)(=O)O[C@H](COCc1ccccc1)[C@@H](COCc1ccccc1)OS(C)(=O)=O`: the melting point lay within 72 to 73 °C. In turn, `Cc1c(C)c2c(c(C)c1O)CCC(C)(COc1ccc(CC3SC(=N)NC3=O)cc1)O2` (configuration not stated) returned a melting point of 205 to 207 °C. The compound `COc1ccc(CCCOc2ccc(C(=O)O)cc2)cc1OC` had a melting point of 150 to 154 °C. In turn, `CN1C(=O)[C@H](NC(=O)C=Cc2ccc(Cl)cc2)N=C(c2ccccc2)c2ccccc21` displayed a melting point of 203 to 205 °C.

The compound `Fc1cccc(F)c1-c1ncc(-c2ccc(Br)cc2)cn1` showed a melting point of 193 to 194 °C.

Turning to `Nc1ccc(N2CC(O)C2)nc1`, the melting point lay within 148 to 150 °C. In the case of `CC(O)(CC(=O)O)c1ccc(-c2ccc(Cl)c(Cl)c2)cc1` (configuration not stated) it was 124 to 126 °C. Turning to `NC(=O)c1ccnc(Oc2cccc(C(F)(F)F)c2)n1`, the melting point was 113 °C.

As for `O=C(Nc1ccc(-n2nc(C(F)(F)F)cc2C(F)(F)F)cc1)c1cc(F)c(F)cc1F`, the melting point lay in the range of 109 to 111 °C. `CS(=O)(=O)CCC(=O)NCc1ccc(/C=C/C(c2cc(Cl)c(Cl)c(Cl)c2)C(F)(F)F)cc1Cl` (configuration not stated): the melting point is 101 to 104 °C. In the case of `CC(C)N1CC2CC(C1)CN(C(C)(O)c1ccc(F)cc1)C2` (configuration not stated), the melting point was in the range of 53 to 54 °C. The compound `O=c1ccn(-c2cccc(C(F)(F)F)c2)nc1-c1nnnn1-c1ccccc1` had a melting point of 172 to 173 °C. In the case of `COc1ccc(-c2ccc3c(c2)c2c(Cl)ccnc2n3S(=O)(=O)c2ccccc2)cc1` it was 209 to 211 °C; in that of `CCCCN1C(=O)C(C)(C)N=C(c2ccccc2F)c2cc([N+](=O)[O-])cc(Cl)c21`, 151 °C. `COC(=O)c1ccc2oc3c(c(=O)c2c1)CCC3=Cc1ccc(N)cc1` showed a melting point of 265 to 268 °C. Compound `O=C(O)CCCCCc1oc(-n2cnc3ccccc32)nc1-c1ccc(Cl)cc1` showed a melting point of 158 to 159 °C. `Cn1c(-c2ccc(Cl)cc2)c(C#N)c(Cl)c1C(F)(F)F` displayed a melting point of 110 °C. As for `COc1ccccc1NC(=O)Nc1ccc(N2CCN(C(=O)Nc3ccc(OCCO)cc3C(F)(F)F)CC2)cc1`, the melting point fell in the range of 118 to 120 °C. `COc1ccc2c(c1O)C13CCN(CC4CC4)C(C2)C1(Cc1ccccc1)CCC(=O)C3` (configuration not stated) had a melting point of 122 to 124 °C. In the case of `CONCc1nc2c(N)nc(C)c(C)c2n1CC(C)C` it was 154 to 156 °C. As to `Cc1c(F)cc(O)c2c(=O)c(C(=O)O)cn([C@@H]3C[C@@H]3F)c12`, the melting point lay in the range of 209 to 213 °C.

In turn, `Cc1cc(NC2=NCCN2)n(-c2ccccc2C)n1` showed a melting point of 168 to 169 °C. In the case of `CCOC(=O)c1ccc(C=C(C)C=O)cn1` it was 72 to 73 °C; in that of `COC1C=C(C)C(=O)CC(C)(C)C1OC(=O)Cc1csc(N)n1` (configuration not stated), 116 to 117 °C. Compound `O=C(O)Cc1ccc(S(=O)c2ccc(Cl)cc2)cc1` (configuration not stated) yielded a melting point of 139 to 141 °C. `CC(C)(C)Nc1c(NCc2ccccc2C(F)(F)F)c(=O)c1=O` displayed a melting point of 237 to 239 °C. Regarding `COC(=O)c1ccc(=O)n(CCCNC(=O)c2ccccn2)c1`, the melting point is 115 to 116 °C. For the compound `CC(SC1COC(c2ccc(C(=O)Nc3ccc(C(N)=O)cc3)cc2)OC1)C(O)(Cn1cncn1)c1ccc(F)cc1F` (configuration not stated), the melting point stood at 230 °C. Compound `O=C(O)c1ncn2c1CN=C(c1ccccc1)c1cc(Br)ccc1-2` yielded a melting point greater than 250 °C.

As to `CCOC(=O)c1[nH]c2cccnc2c1-c1ccc([N+](=O)[O-])cc1`, the melting point was in the range of 234 to 236 °C. The compound `Cc1nc2c(OCc3ccccc3)cccn2c(=O)c1CCCl` had a melting point of 141 °C. Take `C=CC(=O)c1cnc(N2CCC[C@H]2CO)nc1NCc1ccc(OC)c(Cl)c1`: the melting point fell in the range of 113 to 115 °C. `OCCCOc1ccc(Cl)cc1Cl` displayed a melting point of 53 to 55 °C. In the case of `Clc1ccc(OC2CN(C(c3ccccc3)c3ccccc3)C2)cc1Cl` it was 114 to 115 °C; in that of `O=C(O)c1cccc(-c2ccc(Cl)c(C(=O)NCC34CC5CC(CC(C5)C3)C4)c2)c1`, 255 to 257 °C. Compound `O=C(NC1=NN(c2ccc(C(=O)C(F)(F)F)cc2)C(c2ccccc2)C1)C(F)(F)F` (configuration not stated) showed a melting point of 197 to 198 °C.

As to `Cc1cc(C#N)cc(C(=O)Nc2ccnc(Cl)c2)n1`, the melting point came to 238 °C. In the case of `O=C(O)c1ccc(-c2ccc(C(=O)O)c(C(=O)O)c2)cc1C(=O)O` it was 295 to 302 °C. `Cc1ccccc1SC(NC=O)c1sccc1C` (configuration not stated) had a melting point of 103 to 104 °C.

In turn, `CCN1C(=O)C(C)(C)C(=O)N(C)c2cc(CN(CCn3ccc4oc(COC)cc4c3=O)Cc3cccnc3C)ccc21` had a melting point of 123 to 126 °C. Take `C=CCc1c(OC)ccc(-c2cc(-c3ccc(Cl)cc3)n(-c3ccc(OC)cc3)n2)c1OC`: the melting point fell in the range of 44 to 46 °C. `COc1ccc(-c2n[nH]c(=O)c3cc(OC)ccc23)cc1`: the melting point turned out to be 245 °C. In the case of `CC(C)(C)C(=O)Oc1cc2c(s1)CCN(C(C(=O)C1CC1)c1ccccc1F)C2` (configuration not stated) it was 91 to 94 °C; in that of `COc1ccc2c(c1)C1(CCCCc3ccccc31)NC2=O` (configuration not stated), 189 to 190 °C.

Regarding `Cc1cccc(C)c1N(Cn1cc(C(C)C)cn1)C(=O)CCl`, the melting point was determined as 58 °C. In the case of `N#CCc1cccc2c(-c3ccc(F)cc3)nccc12` it was 136 °C. For the compound `O=C1c2ccccc2C(=O)N1c1ncnc2[nH]ccc12`, the melting point lay within 276 to 277 °C. In the case of `CCOC(=O)C1=C(C)NC2=C(C(=O)OC2)C1c1ccccc1Cl` (configuration not stated), the melting point lay within 211 to 212 °C. In the case of `Cc1cc(-c2nc3ccccc3c(=O)n2-c2ccc(Br)cc2)ccc1OCCO` it was 92 to 93 °C; in that of `COc1cc(OC)nc(NC(=O)NS(=O)(=O)c2ccccc2OC(F)(F)F)n1`, 170 °C; in that of `Cc1ccc(-n2ncc(C(=O)Nc3ccc(N4CCC(N5CCOCC5)CC4)c(C#N)c3)c2C)cc1`, 243 °C. The compound `C#CCOc1ccc(C(=O)C=Cc2c[nH]c3ccccc23)c(O)c1` registered a melting point of 228 to 230 °C. For the compound `C[C@@H](O[C@H]1CCCN(Cc2n[nH]c(=O)[nH]2)[C@H]1c1ccccc1)c1cccc(Br)c1`, the melting point came out at 165 °C.

Regarding `O=C(O)c1ccccc1Oc1cc(Cl)c(Cl)cc1NS(=O)(=O)c1ccc(Cl)cc1`, the melting point was in the range of 220 to 221 °C. In the case of `Cc1nc(NC(=O)Nc2ccccc2)sc1C(=O)NCc1ccccc1` it was greater than 300 °C; in that of `NC(N)=Nc1nc(-c2ccc(C(=O)NC(=O)c3cccnc3)o2)cs1`, 217 °C; in that of `O=C(N1CCCC1)N1Cc2c(-c3noc(C4CC4)n3)ncn2-c2cccc(F)c21`, 220 to 222 °C. `CCN(CC)Cc1ccc(CN2C(=O)COc3ccc(C=C4SC(=O)NC4=O)cc32)cc1` returned a melting point of 244 to 246 °C.

`COc1cnc2c(c1)c(CCNC(=O)c1ccco1)c1n2CCCO1` showed a melting point of 70 to 71 °C.

For the compound `Cc1cccc(-c2coc3cc(O)c(O)cc3c2=O)c1`, the melting point was 258 °C. The compound `CON1Cc2c(cc3ccc4c(c3c2-c2ccc3c(c2)OCO3)OCO4)C1=O` gave a melting point of 214 to 216 °C.

`CC(=Cc1ccc(C(=O)O)cc1)[N+](=O)[O-]` registered a melting point of 212 to 214 °C. In the case of `CCC(=O)Oc1cc(OC)cc(OC)c1C(=O)C=Cc1cccn1C`, the melting point was found to be 108 °C. `Cc1oc(-c2ccccc2)nc1Cc1cc2cc(/C=C/CO)ccc2o1`: the melting point lay within 156 to 157 °C. Regarding `CCOC(=O)c1ccc(CCN(C)CCCC(C#N)(C(=O)OCC)c2ccc(OC)c(OC)c2)cc1` (configuration not stated), the melting point lay within 83 to 84 °C. `CN1CCC(=O)C(C2c3ccccc3Sc3ccccc32)C1` (configuration not stated) showed a melting point of 155 to 156 °C. In the case of `O=C(CC(Cc1ccccc1)C(=O)O)c1cccc(Cl)c1` (configuration not stated), the melting point was 85 to 89 °C.

The compound `Nc1cccc(C2NC(=O)Cc3ccccc32)c1` (configuration not stated) had a melting point of 179 to 180 °C.

Regarding `NC(=O)c1ccc2c(c1)C(=O)c1cc(F)ccc1C2=O`, the melting point lay within 322 to 323 °C. `CNS(=O)(=O)c1cn(C)c2ccccc2c1=O` displayed a melting point of 248 to 250 °C.

`O=C1OC(CCCO)C(c2ccccc2)=C1O` (configuration not stated) registered a melting point of 148 to 150 °C. In turn, `O=C(CNC(=S)c1cccnc1)NC1CC1` gave a melting point of 152 to 153 °C.

For the compound `COc1cc(Oc2cccc(C(F)(F)F)c2)nc(C(=O)NCc2ccccc2)c1`, the melting point is 87 to 92 °C. As to `OC1(c2cnccn2)CN2CCC1C2` (configuration not stated), the melting point is 180 to 183 °C. For the compound `CCOC(=O)c1ccccc1S(=O)(=O)NC(=O)Nc1nc(Cl)cc(OC(F)(F)F)n1`, the melting point fell in the range of 148 to 151 °C. The compound `CCCc1c(OCCCC(=O)NC(C)CCCc2cccnc2)ccc(C(C)=O)c1O` (configuration not stated) gave a melting point of 97 to 99 °C. The compound `CNC(=O)c1ccc(N2CCN(Cc3cnc4c(c3)[nH]c(=O)n3cccc43)CC2)c(F)c1` came in with a melting point of 288 to 294 °C. As to `Cc1ccc(C2OC(CO)C(O)C(O)C2O)cc1Cc1ccc(-c2ccc(F)nc2)s1` (configuration not stated), the melting point lay within 130 to 132 °C.

In the case of `Cc1cc(C)c(N)c(C(N)=O)c1`, the melting point lay in the range of 162 to 167 °C. `CCCC(=O)N(C)Cc1c(-c2ccc(C)cc2)nc2n1-c1ccccc1CC2` had a melting point of 110 to 112 °C.

`COc1cccc([C@H]2O[C@H](CC(=O)Nc3nc(C)c(C(=O)O)s3)C(=O)N(CC(C)(C)CO)c3ccc(Cl)cc32)c1OC` had a melting point of 251 to 252 °C. In turn, `CN(CCO[N+](=O)[O-])C(=O)COC(=O)c1cc(S(N)(=O)=O)c(Cl)cc1NCc1ccco1` registered a melting point of 70 to 72 °C.
